Experimental data: patent US20250171459A1, “2-METHYL-4',5'-DIHYDROSPIRO[PIPERIDINE-4,7'-THIENO[2,3-C]PYRAN] DERIVATIVES AS INHIBITORS OF APOL1 AND METHODS OF USING SAME” (Vertex Pharmaceuticals Incorporated, priority 2022, published 2025)

target: T1, APOL1 (Homo sapiens, UniProt O14791); assay: MultiTox-Fluor Multiplex Cytotoxicity Assay in tet-inducible APOL1 T-REx-HEK293 cells (cell rescue, ratio of dead to live cells); format: cell-based; conditions: tet-inducible transgenic APOL1 T-REx-HEK293 cell lines, 50 ng/mL tet, 24 hours; read-out: IP50 (i.e., IC50 for cell proliferation)
T1 sequence (O14791 1-398 S342G/I384M): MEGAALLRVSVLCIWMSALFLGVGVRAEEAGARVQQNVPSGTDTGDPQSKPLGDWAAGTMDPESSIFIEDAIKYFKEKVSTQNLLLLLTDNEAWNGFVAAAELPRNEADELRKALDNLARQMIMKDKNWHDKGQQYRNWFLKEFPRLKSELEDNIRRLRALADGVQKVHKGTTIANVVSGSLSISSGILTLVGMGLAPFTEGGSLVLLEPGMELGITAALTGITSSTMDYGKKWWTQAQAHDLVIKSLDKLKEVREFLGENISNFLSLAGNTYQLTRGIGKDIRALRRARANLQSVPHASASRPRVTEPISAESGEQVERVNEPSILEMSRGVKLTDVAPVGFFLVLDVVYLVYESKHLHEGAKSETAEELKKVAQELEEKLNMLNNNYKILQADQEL
Outline: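 T-REx-HEK293 cells with tet-inducible APOL1 were treated with compound (10 μM top, 10-point 3-fold dilution, duplicate) plus 50 ng/mL tetracycline for 24 h at 37° C, in DMEM with 2% tet-free FBS. MultiTox-Fluor protease signals gave a dead/live ratio, normalized to no tet (100% viability) and tet alone (0%).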

SMILES	IC50
C=C(CO)n1cc(CN2CC[C@]3(C[C@@H]2C)OCCc2c3sc(C(F)(F)F)c2CO)cn1 [Compound 929, 2-[4-[[(2′S,7R)-3-(hydroxymethyl)-2′-methyl-2-(trifluoromethyl)spiro[4,5-dihydrothieno[2,3-c]pyran-7,4′-piperidine]-1′-yl]methyl]pyrazol-1-yl]prop-2-en-1-ol]	< 100 nM
CCc1cc2c(s1)CCO[C@@]21CCN(Cc2cn(CCOCCOCCO)nn2)[C@@H](C)C1 [Compound 195]	100 to 500 nM
C[C@H]1C[C@@]2(CCN1Cc1cn(CC(C)(CO)CO)nn1)OC[C@](O)(C(F)F)c1cc(Cl)sc12 [Compound 840]	< 100 nM
CCc1cc2c(s1)CCOC21CCN(Cc2cn(C3CCC3(F)F)nn2)CC1 (stereo not drawn) [Compound 1123]	500 to 1000 nM
CCc1cc2c(s1)CCO[C@@]21CCN(Cc2cn(Cc3cnn(CCO)c3)nn2)[C@@H](C)C1 [Compound 60]	< 100 nM
C[C@H]1C[C@@]2(CCN1Cc1ccc(S(C)(=O)=O)cc1)OC[C@H](O)c1cc(Cl)sc12 [Compound 802]	100 to 500 nM
CCc1cc2c(s1)CCO[C@@]21CCN(C[C@H]2C[C@@H](NC(=O)CS(C)(=O)=O)C2)[C@@H](C)C1 [Compound 343]	< 100 nM
C[C@H]1C[C@@]2(CCN1Cc1cnn(CC(C)(O)CO)c1)OC[C@@H](O)c1cc(C(F)(F)F)sc12 (stereo partly drawn) [Compound 972]	< 100 nM
CCc1cc2c(s1)CCO[C@@]21CCN(CC2CN(C(=O)c3cn[nH]c3)C2)[C@@H](C)C1 [Compound 433]	< 100 nM
CCc1cc2c(s1)CCO[C@@]21CCN(Cc2cn(CC3(C4(O)CCOCC4)CC3)nn2)[C@@H](C)C1 [Compound 103]	100 to 500 nM
CCc1cc2c(s1)CCOC21CCN(Cc2cn(CCC(=O)NC)nn2)CC1 [Compound 1120]	500 to 1000 nM
CCCNC(=O)c1c(C(F)(F)F)sc2c1CCO[C@@]21CCN(Cc2cn(CCS(C)(=O)=O)nn2)[C@@H](C)C1 [Compound 1007, (2′S,7R)-2′-methyl-1′-[[1-(2-methylsulfonylethyl)triazol-4-yl]methyl]-N-propyl-2-(trifluoromethyl)spiro[4,5-dihydrothieno[2,3-c]pyran-7,4′-piperidine]-3-carboxamide]	500 to 1000 nM
CCc1cc2c(s1)CCO[C@@]21CCN(C[C@H]2C[C@@H](NC(=O)CC3CS(=O)(=O)C3)C2)[C@@H](C)C1 [Compound 352]	< 100 nM
CCc1cc2c(s1)CCO[C@@]21CCN(CC2CN(C(=O)C3CCS(=O)(=O)N3)C2)[C@@H](C)C1 (stereo partly drawn) [Compound 446]	< 100 nM
CCc1cc2c(s1)CCO[C@@]21CCN(C[C@H]2C[C@@H](NC(=O)OC(C)(C)C)C2)[C@@H](C)C1 [Compound 1039]	< 100 nM
C[C@H]1C[C@@]2(CCN1Cc1cnn(Cc3ccc(F)cc3)c1)OCCc1cc(Cl)sc12 [Compound 707]	< 100 nM
C[C@H]1C[C@@]2(CCN1Cc1cncc(F)c1)OC[C@H](O)c1cc(Cl)sc12 [Compound 784]	100 to 500 nM
COCCOCC(O)Cn1cc(CN2CC[C@]3(C[C@@H]2C)OCCc2c3sc(C(F)(F)F)c2CO)cn1 (stereo partly drawn) [Compound 966]	< 100 nM
CS(=O)(=O)CCn1cc(CN2CCC3(CC2C2CC2)OCCc2cc(Cl)sc23)cn1 (stereo not drawn) [Compound 1040, 2-chloro-2′-cyclopropyl-1′-[[1-(2-methylsulfonylethyl)pyrazol-4-yl]methyl]spiro[4,5-dihydrothieno[2,3-c]pyran-7,4′-piperidine]]	< 100 nM
CCc1cc2c(s1)CCO[C@@]21CCN(Cc2cn(CCS(C)(=O)=O)nn2)[C@@H](C)C1 [Compound 11, (2′S,4R)-2-ethyl-2′-methyl-1′-[[1-(2-methylsulfonylethyl)triazol-4-yl]methyl]spiro[6,7-dihydrothieno[3,2-c]pyran-4,4′-piperidine]]	< 100 nM

SMILES	IC50
C[C@H]1C[C@@]2(CCN1Cc1cn[nH]c1)OCCc1c2sc(C(F)(F)F)c1CO [Compound 873, [(2′S, 7R)-2′-methyl-1′-(1H-pyrazol-4-ylmethyl)-2-(trifluoromethyl)spiro[4,5-dihydrothieno[2,3-c]pyran-7,4′-piperidine]-3-yl]methanol]	< 100 nM
CCc1cc2c(s1)CCO[C@@]21CCN(Cc2cn(CCN3CCS(=O)(=O)CC3)nn2)[C@@H](C)C1 [Compound 175]	500 to 1000 nM
C[C@H]1C[C@@]2(CCN1Cc1cnn(CC(C)(CO)CO)c1)OCCc1cc(Cl)sc12 [Compound 634]	< 100 nM
CCc1cc2c(s1)CCO[C@@]21CCN(Cc2cn(CC(O)c3c(C)nn(C)c3C)nn2)[C@@H](C)C1 (stereo partly drawn) [Compound 189]	< 100 nM
CCc1cc2c(s1)CCO[C@@]21CCN(Cc2cn(CC(C)(C)C3(O)CCOCC3)nn2)[C@@H](C)C1 [Compound 111]	100 to 500 nM
CCc1cc2c(s1)CCO[C@@]21CCN(CC2CN(S(=O)(=O)CC)C2)[C@@H](C)C1 [Compound 491, (2′S,4R)-2-ethyl-1′-[(1-ethylsulfonylazetidin-3-yl)methyl]-2′-methyl-spiro[6,7-dihydrothieno[3,2-c]pyran-4,4′-piperidine]]	100 to 500 nM
C[C@H]1C[C@@]2(CCN1Cc1cccc(NS(C)(=O)=O)c1)OCCc1cc(Cl)sc12 [Compound 641]	100 to 500 nM
CNC(=O)[C@@H](O)CN1CC[C@]2(C[C@@H]1C)OCCc1cc(Cl)sc12 [Compound 710, (2S)-3-[(2′S, 7R)-2-chloro-2′-methyl-spiro[4,5-dihydrothieno[2,3-c]pyran-7,4′-piperidine]-1′-yl]-2-hydroxy-N-methyl-propanamide]	500 to 1000 nM
CCc1cc2c(s1)CCO[C@@]21CCN(Cc2cn(CC3CN(C(C)=O)CCO3)nn2)[C@@H](C)C1 (stereo partly drawn) [Compound 171]	100 to 500 nM
CCc1cc2c(s1)CCO[C@@]21CCN(Cc2cn(C(C)c3nncn3CCOC)nn2)[C@@H](C)C1 (stereo partly drawn) [Compound 163]	500 to 1000 nM
CCc1cc2c(s1)CCO[C@@]21CCN(C[C@H]2C[C@@H](NS(=O)(=O)CCCO)C2)[C@@H](C)C1 [Compound 417]	500 to 1000 nM
C[C@H]1C[C@@]2(CCN1Cc1ccc(NS(C)(=O)=O)cc1)OCCc1cc(Cl)sc12 [Compound 638]	< 100 nM
C[C@H]1C[C@@]2(CCN1Cc1cn(C3CCOCC3)nn1)OCCc1c2sc(C(F)(F)F)c1CO [Compound 1004]	100 to 500 nM
CCc1cc2c(s1)CCO[C@@]21CCN(Cc2cnc(N[C@@H](CO)[C@H](C)O)nc2)[C@@H](C)C1 [Compound 226]	< 100 nM
CCc1cc2c(s1)CCO[C@@]21CCN(Cc2ccc(N[C@@H]3C=C[C@H](CO)C3)nc2)[C@@H](C)C1 [Compound 202]	< 100 nM
CCC1=CC2=C(CCO[C@@]23CCN(Cc2cn(CCS(C)(=O)=O)nn2)[C@@H](C)C3)S1(=O)=O [Compound 497, (2′S,4R)-2-ethyl-2′-methyl-1′-[[1-(2-methylsulfonylethyl)triazol-4-yl]methyl]spiro[6,7-dihydrothieno[3,2-c]pyran-4,4′-piperidine]1,1-dioxide]	100 to 500 nM
C[C@H]1C[C@@]2(CCN1Cc1cn(C3CCOCC3)nn1)OCCc1cc(CC(F)F)sc12 [Compound 547]	< 100 nM
CCc1cc2c(s1)CCO[C@@]21CCN(Cc2ccc(NS(C)(=O)=O)cc2)[C@@H](C)C1 [Compound 274]	< 100 nM
Cn1cc(CN2CCC3(CC2)OCC(C)(C)c2sc(Cl)cc23)cn1 [Compound 1178, 2-chloro-7,7-dimethyl-1′-[(1-methylpyrazol-4-yl)methyl]spiro[6H-thieno[3,2-c]pyran-4,4′-piperidine]]	< 100 nM
